Measurements from US20240366728A1, “Treatment of Diabetes Mellitus” (Carmot Therapeutics Inc., priority 2023, published 2024).
pEC50: −log10 of the molar value.

Tests used:
human GLP-1R = human GLP-1R (Homo sapiens, UniProt P43220); test: β-arrestin-2 recruitment (NanoBiT), human GLP-1R; assay type: cell-based; details: read-out: hGLP-1R β-arrestin-2 % Emax; Table 17
Procedure: To measure GLP-1R and GIPR-mediated β-arrestin recruitment, we utilized Promega's NanoBiT® technology or NanoLuc® Binary Technology. The NanoLuc luciferase is split into two subunits, called LgBiT and SmBIT, which are expressed in HEK293 cells as fusion proteins at the C-terminus of GLP-IR or GIPR and the N-terminus of β-arrestin-2. […] The next day, the media was removed and replaced with […] 1:100 dilution of Nano-Glo® Live Cell Substrate in Opti-MEM™ and equilibrated to room temperature for ten minutes. Background luminescence was measured before 10 nL compound was added using an ECHO Acoustic Liquid Handler.
To measure GLP-1R and GIPR-mediated β-arrestin recruitment, Promega's NanoBiT® technology or NanoLuc® Binary Technology were utilized. Both allow for the detection and quantification of protein: protein interactions in live cells (Samms et al., Trends Endocrinol Metab 31:410-21). The NanoLuc luciferase is split into two subunits, called LgBiT and SmBIT, which are expressed in HEK293 cells as fusion proteins at the C-terminus of GLP-1R or GIPR and the N-terminus of β-arrestin-2, respectively. […] Background luminescence was measured before 10 nL compound was added using an ECHO Acoustic Liquid Handler. Luminescence was measured at 1.5-minute intervals for 30 minutes.

[1] = Phase 1 first-in-human SAD/MAD study: pharmacokinetics; assay type: in vivo; details: for Tmax: median Tmax
Source text: This was a randomized, double-blind, placebo-controlled, dose escalation first-in-human (FIH) conducted from December 2018 to January 2020 at a study center in Victoria, Australia in accordance with principles of the Declaration of Helsinki (Ethical Principles for Medical Research Involving Human Subjects), and the NHMRC National Statement on Ethical Conduct in Human Research 2007 (updated 2018). (Registered on the Australian New Zealand Clinical Trials Registry [ANZCTR] under the identifier: ACTRN12618001988246).
Daily doses were given on Day 2 to Day 14. Cohort M1 was dosed with the highest dose level, determined based on the safety and PK data from the preceding Part 1 (SAD), and doses were decreased sequentially for Cohorts M2 and M3 (FIG. 46B).
Characterization of PK profile: PK parameters included maximum concentration (Cmax), time to maximum concentration (Tmax), area under the plasma concentration-time curve (AUC). Blood samples were collected within two hours prior to dosing for pre-dose samples and within ±10 minutes of the nominal/planned time post-dose. For Part 1 (SAD) participants, samples were taken at −2 to 0 hr (pre-dose), 1, 2, 3, 4, 6, 8, 12, 16, 20 hr (Day 1), 24, 30, 36 hr (Day 2), 48 hr (Day 3) and on Day 8 (±1 day, follow-up) post-dose. For Part 2 (MAD) participants, collection occurred −2 to 0 hr (pre-dose), 2, 3, 4, 6, 8, 12 hr (Day 1), 24 hr (Day 2), 48, 60 hr (Day 3), 72 hr (Day 4), 96 hr (Day 5). For Days 7, 8, 11 and 14, samples were taken −2 to 0 hr (pre-dose), 12 hr on Day 7, 2, 4, 6, 8, 12 hr on Day 14, 24, 36 hr on Day 15, 48 hr on Day 16 and on Day 21 (+1 day, follow-up) post-dose.
Estimates for PK parameters are tabulated and summarized by descriptive statistics (mean, standard deviation [SD], median, minimum, and maximum, coefficient of variation [CV %], geometric mean and geometric CV %). Dose proportionality was analyzed using the power model with log-transformed PK parameter values and log-transformed dose. The power model was used to estimate the slope parameter and the 90% confidence intervals (CIs) for the slope. Dose proportionality was generally concluded if the 90% CIs around the slope estimate include the value of 1.

human GIPR = target: T1, human GIPR (Homo sapiens, UniProt P48546); test: cAMP accumulation, SNAP-human GIPR CHO-K1 cells
T1 sequence (P48546 22-466): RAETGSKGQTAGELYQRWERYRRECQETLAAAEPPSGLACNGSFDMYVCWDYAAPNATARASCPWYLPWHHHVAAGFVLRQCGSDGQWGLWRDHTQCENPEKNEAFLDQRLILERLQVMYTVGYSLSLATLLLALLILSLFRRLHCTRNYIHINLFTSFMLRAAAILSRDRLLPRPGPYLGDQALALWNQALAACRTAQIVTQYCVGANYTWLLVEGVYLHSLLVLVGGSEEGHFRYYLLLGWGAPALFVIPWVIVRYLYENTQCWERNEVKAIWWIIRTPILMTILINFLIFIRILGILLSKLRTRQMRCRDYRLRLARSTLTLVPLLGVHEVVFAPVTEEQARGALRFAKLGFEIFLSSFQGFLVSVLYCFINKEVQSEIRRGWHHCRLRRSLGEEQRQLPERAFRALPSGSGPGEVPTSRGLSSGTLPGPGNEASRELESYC

in vivo = details: CD-1, mouse, plasma, sc
Procedure: (§1) First reader's note: The heading '1 mg/kg SC mouse' is printed over the plot above the table and gives dose, route and species for the pharmacokinetic parameters.

[2] = system: lean C57BL/6J, GLP-1R+/+ and GLP-1R-/- mice; test: single intracerebroventricular injection: food consumption and body weight; details: for food consumption and body weight (in words) / body weight decreased / body weight decreased compared to liraglutide / food consumption lowered compared to liraglutide / food consumption lowered compared to vehicle: ICV 0.025 nmol; for body weight decreased / body weight decreased compared to liraglutide / food consumption lowered compared to liraglutide / food consumption lowered compared to vehicle: lean C57BL/6J

human GLP-1R, sequence (P43220 24-463): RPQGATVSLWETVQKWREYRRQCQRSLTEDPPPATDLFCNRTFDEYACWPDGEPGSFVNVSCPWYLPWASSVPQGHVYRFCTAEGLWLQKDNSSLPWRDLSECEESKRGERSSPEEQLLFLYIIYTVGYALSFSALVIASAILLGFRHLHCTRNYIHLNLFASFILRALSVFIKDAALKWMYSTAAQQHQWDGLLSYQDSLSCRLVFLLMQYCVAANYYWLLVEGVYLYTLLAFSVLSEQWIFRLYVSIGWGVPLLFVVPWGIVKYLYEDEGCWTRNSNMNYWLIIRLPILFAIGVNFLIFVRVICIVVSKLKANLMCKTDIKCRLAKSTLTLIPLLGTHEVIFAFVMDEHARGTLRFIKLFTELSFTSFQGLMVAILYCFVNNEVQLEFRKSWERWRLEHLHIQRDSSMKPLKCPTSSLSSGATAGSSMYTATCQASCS
Procedure for 1 mg/kg SC mouse: as §1

## CCCCCCCCCCCCCCCC(=O)N[C@@H](CCC(=O)NCCCC[C@H](NC(=O)[C@H](CO)NC(=O)[C@@H]1CCCN1C(=O)[C@@H]1CCCN1C(=O)[C@@H]1CCCN1C(=O)[C@H](C)NC(=O)CNC(=O)[C@H](CO)NC(=O)[C@H](CO)NC(=O)[C@@H]1CCCN1C(=O)CNC(=O)CNC(=O)[C@H](C)NC(=O)[C@H](CC(C)C)NC(=O)[C@H](CC(C)C)NC(=O)[C@H](Cc1c[nH]c2ccccc12)NC(=O)[C@H](CC(N)=O)NC(=O)[C@@H](NC(=O)[C@H](Cc1ccccc1)NC(=O)[C@H](CCC(=O)O)NC(=O)C(C)(C)NC(=O)[C@H](C)NC(=O)[C@H](C)NC(=O)[C@H](CCC(N)=O)NC(=O)[C@H](CCCCN)NC(=O)[C@H](CC(=O)O)NC(=O)[C@H](CC(C)C)NC(=O)[C@H](Cc1ccc(O)cc1)NC(=O)[C@@H](NC(=O)[C@H](CO)NC(=O)[C@H](Cc1ccc(O)cc1)NC(=O)[C@H](CC(=O)O)NC(=O)[C@H](CO)NC(=O)[C@@H](NC(=O)[C@H](Cc1ccccc1)NC(=O)[C@@H](NC(=O)CNC(=O)[C@H](CCC(=O)O)NC(=O)CSCC(=O)NCCN1CCCCC1=O)[C@@H](C)O)[C@@H](C)O)[C@@H](C)CC)C(C)C)C(N)=O)C(=O)O [CT-868]
Human GLP-1R
  Emax: 1.5%
[1]; MAD 0.75-5.0 mg
  plasma concentrations after 14 days of dosing vs dose (in words): dose-related but not dose-proportional
  plasma concentrations over repeated daily dosing (in words): reached a plateau after a few days of dosing
[1]; human, in vivo, 0.5 mg
  Tmax: 3 h
[1]; human, in vivo, 1.5 mg
  AUC0-t: 154.2 [45.7%] h*ng/ml
  AUC(0-inf): 184.9 [47.6%] h*ng/ml
  Cmax, geometric mean (% CV): 5.62 [28.1%] ng/ml
  half-life: 77.3 h
  median Tmax: 8.0 h
  Tmax: 6 h
[1]; human, in vivo, 1.5 mg, AUC0-inf
  AUC(0-inf): 209 ng·h/mL
[1]; human, in vivo, 1.5 mg, AUC0-t
  AUC0-t: 167 ng·h/mL
[1]; human, in vivo, 1.5 mg, Cmax, geometric mean (% CV)
  Cmax: 7.79 ng/mL
[1]; human, in vivo, 7.5 mg
  Tmax: 20 h
[1]; human, in vivo, 11 mg
  half-life: 19.7 h
[1]; human, in vivo, predominant range
  Tmax: 3 to 12 h
[1]; in vivo
  mean Cmax vs dose (in words): increased with increasing dose level
  time to maximum plasma concentrations after the first dose: 48 to 96 h
Human GIPR; CHO-K1, read-out: hGIPR cAMP (-alb) % Emax
  Emax: 41%
Human GIPR; potency activating cAMP at human GIPR, value of b126
  pEC50: ~8.48

## CCCCCCCCCCCCCCCC(=O)N[C@@H](CCC(=O)NCCCC[C@H](NC(=O)[C@H](CO)NC(=O)[C@@H]1CCCN1C(=O)[C@@H]1CCCN1C(=O)[C@@H]1CCCN1C(=O)[C@H](C)NC(=O)CNC(=O)[C@H](CO)NC(=O)[C@H](CO)NC(=O)[C@@H]1CCCN1C(=O)CNC(=O)CNC(=O)[C@H](C)NC(=O)[C@H](CC(C)C)NC(=O)[C@H](CC(C)C)NC(=O)[C@H](Cc1c[nH]c2ccccc12)NC(=O)[C@H](CC(N)=O)NC(=O)[C@@H](NC(=O)[C@H](Cc1ccccc1)NC(=O)[C@H](CCC(=O)O)NC(=O)C(C)(C)NC(=O)[C@H](C)NC(=O)[C@H](C)NC(=O)[C@H](CCC(N)=O)NC(=O)[C@H](CCCCN)NC(=O)[C@H](CC(=O)O)NC(=O)[C@H](CC(C)C)NC(=O)[C@H](Cc1ccc(O)cc1)NC(=O)[C@@H](NC(=O)[C@H](CO)NC(=O)[C@H](Cc1ccc(O)cc1)NC(=O)[C@H](CC(=O)O)NC(=O)[C@H](CO)NC(=O)[C@@H](NC(=O)[C@H](Cc1ccccc1)NC(=O)[C@@H](NC(=O)CNC(=O)[C@H](CCC(=O)O)NC(=O)CSCC(=O)NCCN1C(=O)CSC1=O)[C@@H](C)O)[C@@H](C)O)[C@@H](C)CC)C(C)C)C(N)=O)C(=O)O [CT-859]
1 mg/kg SC mouse
  AUClast: 3.579 µM·h
  Tmax: 4.0 h
In vivo
  Cmax: 324 nM
  half-life: 8.72 h
[2]
  food consumption and body weight vs liraglutide after ICV (in words): decreased food consumption and body weight more than liraglutide
[2]; GLP-1R+/+ mice
  food consumption and body weight (in words): suppressed food consumption and reduced body weight
[2]; GLP-1R-/- mice
  food consumption and body weight (in words): no effect
[2]; GLP-1R-KO mice, 0.025 and 1 nmol/kg
  food consumption, body weight, blood glucose after ICV (in words): did not have any significant effects on food consumption, body weight, or blood glucose
[2]; GLP-1R-WT mice, 0.025 and 1 nmol/kg, up to 72 h
  food consumption, body weight after ICV (in words): dose dependent reduction of cumulative food consumption
[2]; 24 hours
  body weight decreased: 9%
  body weight decreased compared to liraglutide: 5%
  food consumption lowered compared to liraglutide: 45%
  food consumption lowered compared to vehicle: 63%
[2]; 48 hours
  body weight decreased: 5%
  body weight decreased compared to liraglutide: 5%
  food consumption lowered compared to liraglutide: 27%
  food consumption lowered compared to vehicle: 38%
[2]; wildtype mice, ICV […], up to 19 h
  food intake and body weight vs equal dose of liraglutide (in words): significantly greater reduction of food intake and body weight
